Test results published in ChEMBL document CHEMBL5360533, “Targeting ecto-5'-nucleotidase: A comprehensive review into small molecule inhibitors and expression modulators” (Eur J Med Chem, 2023).
pIC50, pKi: −log10 of the molar value. Each block holds one compound with its values, some of them ahead of it.

How the values were obtained:
5'-nucleotidase [1] = biological target: T1, 5'-nucleotidase (Homo sapiens, UniProt P21589); experiment: Inhibition of human Ecto-5'-nucleotidase in rat C6 cells at 200 uM relative to control; type: cell-based
T1 sequence (P21589 whole entry): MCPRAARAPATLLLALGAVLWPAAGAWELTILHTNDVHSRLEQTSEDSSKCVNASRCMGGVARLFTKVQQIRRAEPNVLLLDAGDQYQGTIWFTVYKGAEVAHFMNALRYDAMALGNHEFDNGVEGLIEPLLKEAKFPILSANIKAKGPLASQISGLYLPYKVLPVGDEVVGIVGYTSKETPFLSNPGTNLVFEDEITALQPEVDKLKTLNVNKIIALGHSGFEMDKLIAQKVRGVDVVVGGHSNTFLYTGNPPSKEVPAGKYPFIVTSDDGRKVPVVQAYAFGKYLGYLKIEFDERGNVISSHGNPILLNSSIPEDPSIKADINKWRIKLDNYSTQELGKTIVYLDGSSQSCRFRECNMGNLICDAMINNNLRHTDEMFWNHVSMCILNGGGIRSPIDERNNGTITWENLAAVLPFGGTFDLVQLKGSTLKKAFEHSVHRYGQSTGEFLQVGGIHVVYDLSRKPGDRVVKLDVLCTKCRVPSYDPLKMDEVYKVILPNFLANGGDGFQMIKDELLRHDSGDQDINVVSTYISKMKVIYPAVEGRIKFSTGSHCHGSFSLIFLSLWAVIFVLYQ

5'-nucleotidase [2] = biological target: T1, 5'-nucleotidase; experiment: Inhibition of human Ecto-5'-nucleotidase in rat C6 cells at 100 uM relative to control; type: cell-based
[3] = Cytotoxicity against hamster BHK-21 cells assessed as inhibition of cell viability at 100 uM measured after 24 hrs by MTT assay; type: toxicity, cell-based, Mesocricetus auratus; conditions: read-out: INH
HeLa [4] = experiment: Cytotoxicity against human HeLa cells assessed as inhibition of cell viability at 100 uM measured after 24 hrs by MTT assay; type: functional
5'-nucleotidase [5] = biological target: T1, 5'-nucleotidase; experiment: Inhibition of human recombinant Ecto-5'-nucleotidase
5'-nucleotidase [6] = biological target: T2, 5'-nucleotidase (Mus musculus, UniProt Q61503); experiment: Inhibition of mouse Ecto-5'-nucleotidase
T2 sequence (Q61503 whole entry): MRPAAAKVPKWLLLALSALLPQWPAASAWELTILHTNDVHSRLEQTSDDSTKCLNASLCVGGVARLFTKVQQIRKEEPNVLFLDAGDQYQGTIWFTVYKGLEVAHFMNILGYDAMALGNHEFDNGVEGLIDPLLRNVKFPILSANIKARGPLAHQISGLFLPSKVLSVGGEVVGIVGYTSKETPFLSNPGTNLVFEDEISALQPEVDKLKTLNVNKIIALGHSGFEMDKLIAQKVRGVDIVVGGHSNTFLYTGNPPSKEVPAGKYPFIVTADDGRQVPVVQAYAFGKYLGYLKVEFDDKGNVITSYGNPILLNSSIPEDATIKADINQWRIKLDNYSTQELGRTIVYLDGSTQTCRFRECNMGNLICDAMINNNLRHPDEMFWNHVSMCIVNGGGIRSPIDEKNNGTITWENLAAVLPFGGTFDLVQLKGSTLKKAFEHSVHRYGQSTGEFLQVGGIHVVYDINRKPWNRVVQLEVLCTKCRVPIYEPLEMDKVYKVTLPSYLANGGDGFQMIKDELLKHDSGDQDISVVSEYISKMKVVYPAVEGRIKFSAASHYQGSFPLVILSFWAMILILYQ

5'-nucleotidase [7] = biological target: T1, 5'-nucleotidase; experiment: Inhibition of human recombinant CD73
5'-nucleotidase [8] = biological target: T1, 5'-nucleotidase; experiment: Inhibition of human N-terminal Ecto-5'-nucleotidase
5'-nucleotidase [9] = biological target: T1, 5'-nucleotidase; experiment: Inhibition of recombinant CD73 (unknown origin)
5'-nucleotidase [10] = biological target: T1, 5'-nucleotidase; experiment: Inhibition of N-terminal human Ecto-5'-nucleotidase at 250 uM relative to control
HeLa [11] = experiment: Cytotoxicity against human HeLa cells; type: functional, cell-based
Trichomonas vaginalis = experiment: Antiprotozoal activity against Trichomonas vaginalis ATCC 30236 assessed as parasitic growth inhibition measured after 24 hrs by cytometry analysis; type: functional, organism-based; conditions: ATCC 30236, 24 h
5'-nucleotidase [12] = biological target: T1, 5'-nucleotidase; experiment: Binding affinity to human recombinant Ecto-5'-nucleotidase assessed as inhibition constant
[13] = biological target: T3, Alkaline phosphatase, tissue-nonspecific isozyme (Homo sapiens, UniProt P05186); experiment: Inhibition of human TNAP
T3 sequence (P05186 whole entry): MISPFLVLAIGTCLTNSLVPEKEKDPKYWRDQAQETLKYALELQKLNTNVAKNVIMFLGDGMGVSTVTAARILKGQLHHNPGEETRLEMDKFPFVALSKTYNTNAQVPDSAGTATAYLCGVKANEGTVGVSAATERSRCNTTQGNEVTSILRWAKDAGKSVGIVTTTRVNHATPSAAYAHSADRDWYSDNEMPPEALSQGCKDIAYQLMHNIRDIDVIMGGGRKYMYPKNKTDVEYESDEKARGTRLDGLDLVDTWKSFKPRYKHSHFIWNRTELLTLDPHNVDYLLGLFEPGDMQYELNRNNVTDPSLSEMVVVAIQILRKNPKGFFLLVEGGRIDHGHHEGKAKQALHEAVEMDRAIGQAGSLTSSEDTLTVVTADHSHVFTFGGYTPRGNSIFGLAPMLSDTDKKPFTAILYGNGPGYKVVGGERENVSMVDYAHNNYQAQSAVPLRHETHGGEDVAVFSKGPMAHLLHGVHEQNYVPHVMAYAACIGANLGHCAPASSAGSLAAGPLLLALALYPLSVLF

5'-nucleotidase [14] = biological target: T1, 5'-nucleotidase; experiment: Inhibition of human CD73
5'-nucleotidase [15] = biological target: T1, 5'-nucleotidase; experiment: Inhibition of human CD73 expressed in A-375 cells; type: cell-based
5'-nucleotidase [16] = biological target: T1, 5'-nucleotidase; experiment: Inhibition of human recombinant CD73 in MDA-MB-231 cells at 12.5 ug/ml incubated for 24 hrs by Western blot analysis relative to control; type: cell-based; conditions: dose 12.5 µg/ml
5'-nucleotidase [17] = biological target: T1, 5'-nucleotidase; experiment: Inhibition of human recombinant CD73 in mouse 4T1 cells at 12.5 ug/ml incubated for 24 hrs by Western blot analysis relative to control; type: cell-based; conditions: dose 12.5 µg/ml
5'-nucleotidase [18] = biological target: T4, 5'-nucleotidase (Rattus norvegicus, UniProt P21588); experiment: Inhibition of rat Ecto-5'-nucleotidase
T4 sequence (P21588 whole entry): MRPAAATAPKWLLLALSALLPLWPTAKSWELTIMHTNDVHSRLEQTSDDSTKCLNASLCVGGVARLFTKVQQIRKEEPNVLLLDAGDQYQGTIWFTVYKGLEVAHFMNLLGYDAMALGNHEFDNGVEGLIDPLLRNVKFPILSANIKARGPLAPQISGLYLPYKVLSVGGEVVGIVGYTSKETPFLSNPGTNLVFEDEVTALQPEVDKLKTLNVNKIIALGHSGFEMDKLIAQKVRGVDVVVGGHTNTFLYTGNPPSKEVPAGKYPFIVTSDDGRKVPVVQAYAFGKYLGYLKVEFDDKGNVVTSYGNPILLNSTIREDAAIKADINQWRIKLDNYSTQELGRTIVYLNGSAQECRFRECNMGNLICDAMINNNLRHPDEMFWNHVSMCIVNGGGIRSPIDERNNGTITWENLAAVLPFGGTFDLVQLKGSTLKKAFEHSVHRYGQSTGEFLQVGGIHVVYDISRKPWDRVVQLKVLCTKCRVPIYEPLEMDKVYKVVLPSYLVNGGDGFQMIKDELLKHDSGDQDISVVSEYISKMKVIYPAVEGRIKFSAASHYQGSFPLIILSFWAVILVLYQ

Compound: CCOC(=O)C1=C(C)NC(=S)NC1c1ccc(N(C)C)cc1 (stereo not given)
inhibition (5'-nucleotidase [1]): 48%
inhibition (5'-nucleotidase [2]): 36%

Compound: O=C1CNC(=S)N1/N=C/c1ccc(Br)s1
cytotoxicity at 24 h, 100 µM [3]: 4.31%
inhibition at 100 µM (HeLa [4]): 4.31%

Compound: COc1ccc(/C=N/NC(=O)c2ccccc2)cc1
pIC50 (5'-nucleotidase [6]): 4.86

Compound: CC1=CC(=O)C2(C=C(c3cc4oc(=O)c5cc(O)c(O)cc5c4c(=O)o3)c3cc(O)c(O)cc32)O1 (stereo not given)
pIC50 (5'-nucleotidase [7]): 5.17

Compound: C=Cn1cc[n+](Cc2ccc(O)c(C=O)c2)c1
pIC50 (5'-nucleotidase [6]): 5.71
pIC50 (5'-nucleotidase [8]): 5.94

Compound: O=C(N/N=C/c1ccc(Br)cc1)c1ccccc1
pIC50 (5'-nucleotidase [6]): 6.64

Compound: COc1cc(/C=N/N2C(=O)CNC2=S)cc(OC)c1OC
cytotoxicity at 24 h, 100 µM [3]: 4.31%
inhibition at 100 µM (HeLa [4]): 4.31%

Compound: COc1cc(/C=N/NC(=O)c2ccccc2)ccc1O
pIC50 (5'-nucleotidase [6]): 6.17

Compound: COc1cccc(COc2ccc(/C=N/N3C(=O)CNC3=S)cc2)c1
cytotoxicity at 24 h, 100 µM [3]: 4.31%
pIC50 (5'-nucleotidase [8]): 6.55
inhibition at 100 µM (HeLa [4]): 4.31%

Compound: CC(=O)c1sc(N/N=C/c2ccc(N(C)C)cc2)nc1C
pIC50 (5'-nucleotidase [8]): 6.49

Compound: CCc1ccc2occ(/C=N/NS(=O)(=O)c3ccc(C)cc3)c(=O)c2c1
pIC50 (HeLa [11]): 4.07

Compound: O=C(Nc1ccncc1)c1ccc(Cl)cc1
pIC50 (5'-nucleotidase [8]): 6.54

Compound: Cc1cc2c(cc1O)c(=O)oc1cc(/C=C/c3ccc(O)c(O)c3)oc(=O)c12
pIC50 (5'-nucleotidase [7]): 4.46

Compound: C/C(=N\NS(=O)(=O)c1ccccc1)c1cc2ccccc2oc1=O
pIC50 (5'-nucleotidase [5]): 6.54

Compound: CC(=O)c1sc(N/N=C/c2cc3ccccc3[nH]2)nc1C
pIC50 (5'-nucleotidase [8]): 6.49

Compound: CCCC(=O)c1c(O)c2c(c(CC3=C(O)C(C)(CC=C(C)C)C(=O)C(C(=O)C(C)C)=C3O)c1O)OC(C)(C)C=C2 (stereo not given)
pIC50 (Trichomonas vaginalis): 4.42

Compound: COc1ccc(CN(C)C(=O)Nc2sc3c(c2C(=O)OC(C)(C)C)CCN(Cc2ccccc2)C3)cc1OC
pIC50 (5'-nucleotidase [8]): 4.34

Compound: O=S1(=O)NC(Nc2cccc3[nH]ncc23)=Nc2c1cc(Cl)c(F)c2O
pIC50 (5'-nucleotidase [7]): 7.82

Compound: Cc1ccc(C(=O)N2CCc3cc(-c4nc(NC(=O)CN5CCc6ccccc6C5)sc4C)ccc32)cc1
pKi (5'-nucleotidase [12]): 6.28

Compound: O=C(N/N=C/c1cccnc1)c1ccccc1
pIC50 (5'-nucleotidase [6]): 6.68

Compound: CC(=O)c1cc2ccccc2oc1=O [3-ACETYLCOUMARIN]
pIC50 (5'-nucleotidase [5]): 5.33

Compound: O=c1c(O)c(-c2ccc(O)c(O)c2)oc2cc(O)cc(O)c12 [QUERCETIN]
pIC50 (5'-nucleotidase [8]): 4.34

Compound: O=c1oc2ccccc2cc1-c1csc(/N=C/c2cccc([N+](=O)[O-])c2)n1
pIC50 [13]: 6.60

Compound: C=C[C@]1(C)C[C@@H](OC(=O)CSCCN(CC)CC)[C@]2(C)[C@H](C)CC[C@]3(CCC(=O)[C@H]32)[C@@H](C)[C@@H]1O
inhibition (5'-nucleotidase [16]): 53.9%
inhibition (5'-nucleotidase [17]): 31.4%

Compound: CC(=O)c1sc(N/N=C/c2ccc[nH]2)nc1C
pIC50 (5'-nucleotidase [8]): 6.49

Compound: Cc1nn(-c2ccccc2)c2nc(-c3ccccc3O)ccc12
pIC50 (5'-nucleotidase [18]): 6.19
pIC50 (5'-nucleotidase [8]): 4.59

Compound: Cc1ccc(S(=O)(=O)N/N=C/c2coc3ccc(Br)cc3c2=O)cc1
pIC50 (HeLa [11]): 4.52

Results, then the compound that gave them:

pIC50 (5'-nucleotidase [5]): 5.21
Compound: O=C(CSc1nnc(-c2c[nH]c3ccccc23)n1Cc1ccccc1)NO

pIC50 (5'-nucleotidase [8]): 6.80
Compound: Cc1ccc(-n2cc(C#N)c3cc4c(=O)oc5ccc(C)cc5c4nc32)cc1

pIC50 (5'-nucleotidase [8]): 5.95
Compound: COc1ccc(-c2ccc3nc(C(F)(F)F)cc(-c4ccc(OC)cc4)c3c2)cc1

pIC50 (5'-nucleotidase [9]): 5.32
Compound: O=P(O)(O)CP(=O)(O)C[C@@H](O)[C@H]1O[C@@H](n2cc(-c3cc(C(F)(F)F)cc(C(F)(F)F)c3)nn2)[C@H](O)[C@@H]1O

inhibition (5'-nucleotidase [10]): 59%
Compound: COc1c2c(cc3c1C(=O)O[C@H]1[C@@H]3[C@H]3C(=C[C@@H]1O)CCN3C)OCO2

pIC50 (5'-nucleotidase [9]): 6.07
Compound: O=P(O)(O)CP(=O)(O)C[C@@H](O)[C@H]1O[C@@H](n2cc(-c3ccc4ccccc4c3)nn2)[C@H](O)[C@@H]1O

inhibition (5'-nucleotidase [10]): 88%
Compound: O=C1c2cc3c(cc2[C@@H]2[C@H](O)[C@@H](O)C=C4CCN1[C@H]42)OCO3

pIC50 (5'-nucleotidase [7]): 4.77
Compound: O=c1oc(/C=C/c2ccc(O)c(O)c2)cc2oc3cc(O)c(O)cc3c12 [PHELLIBAUMIN A]

pIC50 (5'-nucleotidase [8]): 5.76
Compound: FC(F)(F)c1cc(Cl)c2cc(Br)ccc2n1

pIC50 (5'-nucleotidase [7]): 4.72
Compound: Nc1ncnc2c1ncn2[C@@H]1O[C@H](COC(C(=O)O)P(=O)(O)O)[C@@H](O)[C@H]1O (stereo not given in full)

pIC50 (5'-nucleotidase [14]): 10.30
pIC50 (5'-nucleotidase [15]): 10.29
Compound: O=P(O)(O)COC[C@H]1O[C@@H](n2ncc3c(N4CC5(CCc6ccccc65)C4)nc(Cl)nc32)[C@H](O)[C@@H]1O

pIC50 (5'-nucleotidase [8]): 5.92
Compound: Fc1cccc(-c2ccc3nc(C(F)(F)F)cc(-c4cccc(F)c4)c3c2)c1

pIC50 (5'-nucleotidase [6]): 6.72
Compound: C/C(=N\NC(=O)c1ccncc1)N1N=C(c2ccc(F)cc2)CC1c1ccccc1 (stereo not given)

pIC50 (5'-nucleotidase [8]): 5.75
Compound: Fc1cccc(-c2ccc3nc(C(F)(F)F)cc(Cl)c3c2)c1
